Results taken from paper PMC11374660, “The novel family of Warbicin® compounds inhibits glucose uptake both in yeast and human cells and restrains cancer cell proliferation” (Frontiers in Oncology, 2024).

Legend:
yeast tps1Δ strain = assay: Growth (rescue) of the yeast tps1Δ strain on galactose with or without glucose; type: cell-based, S. cerevisiae; details: 100 µM, 2.5 mM glucose
Method: Growth curves were made by measuring OD595 in a 96-well plate using the Multiskan™ FC Microplate Photometer (Thermo Fisher Scientific). Typically, for tps1Δ rescue experiments, cells were (pre)grown in Complete Synthetic medium containing 110 mM galactose. Compounds were always added 10 min prior to glucose addition to ensure maximal interaction between the cells and compounds. Cells originating from the preculture were harvested, washed in medium without sugar, after which they were resuspended to an OD of 0.1 in 200 µL of the appropriate medium. At least three technical replicates were included per condition. OD595 was measured at 30°C every 30 min with a 10-min shaking interval.

[1] = system: A549 lung adenocarcinoma cells; assay: Proliferation of A549 lung adenocarcinoma cells; type: cell-based, human; details: for Selected from primary screen for growth inhibition of A549 cells at 50 µM: RPMI 1 mM glucose; for relative potency in reducing maximal growth rate of A549 cells: 1 mM glucose, 6.25-50 µM; for Selected for having an IC50 ratio (10 mM glucose : 1 mM glucose) of A549 growth higher than WBC-A: ratio of IC50 on 10 mM and 1 mM glucose, compared to WBC-A
Method: (§1) For both adherent A549 and MCF10A H-RAS^V12 cell lines, growth curves were established using the IncuCyte® ZOOM technology. By collecting phase contrast images, the IncuCyte® software provides a calculated confluency percentage from which growth curves can be deducted. The cell number/density was measured by calculating the confluency of phase objects (cells) sticking on the bottom of the well. Cells were seeded at a density of 1000 - 1500 cells/well in a Nunc-Edge™ 96-well plate (Thermo Fisher Scientific) and growth was typically measured over 3 to 5 days. For the measurement of apoptosis induction using the MCF10A H-RAS^V12 cell line, the IncuCyte® Caspase-3/7 green dye was added to the medium in the recommended concentration at the beginning of the growth curve experiment. Apoptosis was detected by taking fluorescent images by excitation at 488 nm followed by IncuCyte® software analysis. Cell growth of the KMS-12-PE multiple myeloma cell line, which grows in suspension, was measured by manual cell counting. Cells were initially seeded at a density of 10^4 cells/well and incubated for 4 days after which the cell number was counted. For all cell lines, the same medium used for pregrowth was also used for the growth curve experiment, albeit with different glucose concentrations depending on the experimental design. With compound administration, the final concentration of DMSO never exceeded 0.1%. Typically, at least four technical repeats were included per condition.

[2] = system: 2-deoxyglucose uptake in A549 lung adenocarcinoma cells; assay: 2-deoxyglucose uptake in A549 lung adenocarcinoma cells; type: cell-based, human; details: for Ki: read-out: Ki for 2-deoxyglucose uptake (Dixon plot)
Method: Zero-trans glucose uptake in A549 cells was approximated by measuring the uptake of [1,2-^3H]2-deoxyglucose. For this purpose, A549 cells were pregrown in RPMI medium containing 10 mM glucose in a 24-well plate to a cell density of around 100,000 cells/well. Prior to adding radioactive label, cells were gently washed twice in Krebs-Ringer-HEPES buffer (50 mM HEPES pH 7.4, 137 mM NaCl, 4.7 mM KCl, […], 1.3 mM MgSO4 and 0.1% w/v BSA) at 30°C to remove any residual sugar. RPMI medium without sugar containing the compound intended for treatment, was added to the cells for 15 min at 37°C to allow adequate interaction of the cells with the compound. The uptake measurement was initiated by adding an equal volume of medium containing radiolabeled 2DG. After 3 - 4 min incubation at 37°C, medium was aspirated and cells were gently washed three times with ice-cold Krebs-Ringer-HEPES buffer. Cells were lysed by adding 200 µL of ice-cold 0.1 M NaOH solution and incubating the plate for 10 min at 37°C. Cell lysates were transferred to scintillation vials for subsequent scintillation counting. For blank measurements, cells were incubated with 50 µM Cytochalasin B prior to the uptake measurement.

[3] = system: A549 lung adenocarcinoma cells; assay: Glucose consumption and lactate production over 8 h, A549; type: cell-based, human; details: A549, 25 µM, 1 mM glucose
Method: The influence of WBC compounds on glucose consumption over a longer time period was studied in the A549 adenocarcinoma and KMS-12-PE multiple myeloma cell lines. As such, different parameters needed to be optimized depending on whether cells were adherent or in suspension. As such, A549 cells were incubated at 125,000 cells/well in a 24-well plate in 300 µL RPMI medium for 8 h. For the KMS-12-PE cell line, 100,000 cells/well were incubated in 100 µL RPMI medium in a 96-well plate for 8 h. Medium was collected, spun down and HPLC-analyzed for measuring glucose and lactate levels. Metabolite levels were corrected for cell number, which always varied little over the span of 8 h. For every condition, at least 4 technical repeats were included.

[4] = system: MCF10A breast epithelial cell line transformed with H-RAS^V12; assay: Growth and apoptosis of MCF10A H-RAS^V12 cells (IncuCyte); type: cell-based, human; details: MCF10A H-RAS^V12, 1 mM glucose, 25 µM
Method: as §1

female NMRI-nu mice = assay: In vivo toxicity and tolerability in mice; details: for abnormalities / toxic effects in liver and other organs at autopsy: daily i.p., toxic effects at 20 mg/kg WBC-15C and at 20 and 10 mg/kg WBC-11C, not at lower doses; for loss in body weight: daily intraperitoneal injection, 5, 10 and 20 mg/kg; for AST/ALT ratio vs vehicle: sera after 20 days, 5, 10, 20 mg/kg daily i.p.; for blood glucose level vs vehicle: sera post-mortem after 20 days, 5, 10, 20 mg/kg daily i.p.
Method: Warbicin ® in vivo toxicity and tolerability was examined by subjecting female NMRI-nu mice (12 weeks old) to daily intraperitoneal injection of either WBC-A, WBC-15C, WBC-4C or WBC-11C. Compounds were dosed at either 5 mg/kg, 10 mg/kg or 20 mg/kg over a period of 20 days. Three mice were used per condition. To evaluate toxicity, change in body weight was registered daily. As a humane endpoint, mice that lost more than 20% of their original body weight were prematurely sacrificed. In addition, liver function was examined by measuring the ratio of the AST to ALT enzyme activities (AbCam ab105135, ab105134) in sera samples collected at the end of the experiment. Furthermore, the blood glucose level in mice sera was determined using the colorimetric GOD-PAP method. Due to their considerable hydrophobicity, the compounds were dissolved in a sterilized 1xPBS, 5% DMSO and 5% Tween-80 solution until a homogenous suspension was obtained that could be administered in a reproducible way.

[5] = Solubility of compound stocks; type: physicochemical; details: 100% DMSO
Method: WBC-A and the complete structural analog library ( Supplementary Table 2 ) were purchased from different vendors, i.e. Enamine (n = 185), Life Chemicals (n = 10), LabNetwork (n = 4) and Uorsy (n = 4). WBC compounds in general are very insoluble in aqueous solutions, challenging their solubilization. Throughout this work, WBC compounds were always stock aliquoted at 50 mM concentration in 100% DMSO. In many cases, gentle sonication and heating up to 37°C was necessary to completely solubilize the compound stocks. Whereas WBC-A, -15C, -4C and -11C could be dissolved at 50 mM, some structural analogs remained in smooth or rough suspension, regardless of the concentration. Even though it is recommended to aliquot compound stocks, no significant decrease in compound strength by repeated freeze and thaw cycles in DMSO was observed.

[6] = system: A549 lung adenocarcinoma cells; set-up: method as in PMID 22689530; details: previously reported; ref [67]; cited from earlier work

Compound	Rescue of the tps1∆ strain on 2.5 mM glucose at 100 µM (yeast tps1Δ strain)	Selected from primary screen for growth inhibition of A549 cells at 50 µM [1]	relative potency in reducing maximal growth rate of A549 cells [1]	Selected for having an IC50 ratio (10 mM glucose : 1 mM glucose) of A549 growth higher than WBC-A [1]	type of inhibition of 2-deoxyglucose uptake (Lineweaver-Burk) [2]	K'i for 2-deoxyglucose uptake ([2]; Dixon plot (Ki = K'i) or Cornish-Bowden plot (WBC-11C)) [µM]	Ki [2] [µM]	inhibition of glucose consumption and lactate production [3]	inhibition of proliferation [4]	abnormalities / toxic effects in liver and other organs at autopsy (female NMRI-nu mice; 20 days)	loss in body weight (female NMRI-nu mice; nude mice, 20 days)	AST/ALT ratio vs vehicle (female NMRI-nu mice)	blood glucose level vs vehicle (female NMRI-nu mice)	concentration at which compound could be dissolved [5] [mM]	inhibition of A549 proliferation [6]	adipose tissue at autopsy (female NMRI-nu mice; nude mice, daily i.p., 5, 10 and 20 mg/kg, 20 days, visual inspection vs vehicle)
Cc1nc(NCC(=O)NCc2ccco2)c2c(-c3ccccc3)csc2n1 [WBC-4C]	No	Yes	intermediate potency	Higher IC50 ratio and confirmed	noncompetitive	26.75	26.8	inhibited glucose consumption and lactate production	highest potency	No other abnormalities	one single mouse treated with 20 mg/kg WBC-4C that was sacrificed at day 19 because of 20% weight loss	No significant difference	No significant difference	≥ 50	–	–
O=C(Oc1cccc(F)c1OC(=O)c1cccc(O)c1)c1cccc(O)c1 [WZB-117]	–	–	–	–	–	–	–	–	–	–	–	–	–	–	inhibition of its proliferation	–
Cc1nc(NCC(=O)Nc2ccccc2Br)c2c(-c3cccs3)csc2n1 [WBC-15C]	No	Yes	least potent	Higher IC50 ratio and confirmed	competitive	–	33.8	inhibited glucose consumption and lactate production	–	toxic effects were seen in the liver and other organs	no significant loss in body weight	No significant difference	No significant difference	≥ 50	–	adipose tissue was also observed in between the intestines
